Experimental data: BindingDB's records for PubMed 11408556 (Astrazeneca Pharmaceuticals, 2001)
pKi: −log10 of the molar value. Values joined by “and” are separate entries in the source; they are usually repeats but may differ in a detail not shown here. Equal entries are not always repeated.

Biological target: Substance-P receptor (Homo sapiens, UniProt P25103)
Sequence (P25103 whole entry): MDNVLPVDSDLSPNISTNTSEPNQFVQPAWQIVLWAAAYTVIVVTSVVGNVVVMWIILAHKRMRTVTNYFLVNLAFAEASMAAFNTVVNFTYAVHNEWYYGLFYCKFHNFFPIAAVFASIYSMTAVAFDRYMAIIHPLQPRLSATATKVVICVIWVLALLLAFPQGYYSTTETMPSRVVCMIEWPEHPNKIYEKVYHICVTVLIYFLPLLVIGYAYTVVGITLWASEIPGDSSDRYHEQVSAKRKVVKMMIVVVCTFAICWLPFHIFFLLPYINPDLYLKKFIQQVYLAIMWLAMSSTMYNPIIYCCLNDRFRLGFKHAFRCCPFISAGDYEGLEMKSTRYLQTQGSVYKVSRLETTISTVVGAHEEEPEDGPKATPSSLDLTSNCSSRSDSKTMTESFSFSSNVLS

With `CN(C[C@@H](CCN1CCC(c2ccccc2[S+](C)[O-])CC1)c1ccc(Cl)c(Cl)c1)C(=O)c1cc(C#N)cc2ccccc12` (stereo partly specified) the pKi was 9.21 and 9.92.
